Assay results published in US8288139B2, “Sulfotransferase inhibitors” (Seikagaku Corporation, priority 2002, dated 2012).

Target: T1, human-derived GalNAc4S6ST (Homo sapiens, UniProt Q7LFX5)
T1 construct: made in house
T1 sequence (Q7LFX5 1-561): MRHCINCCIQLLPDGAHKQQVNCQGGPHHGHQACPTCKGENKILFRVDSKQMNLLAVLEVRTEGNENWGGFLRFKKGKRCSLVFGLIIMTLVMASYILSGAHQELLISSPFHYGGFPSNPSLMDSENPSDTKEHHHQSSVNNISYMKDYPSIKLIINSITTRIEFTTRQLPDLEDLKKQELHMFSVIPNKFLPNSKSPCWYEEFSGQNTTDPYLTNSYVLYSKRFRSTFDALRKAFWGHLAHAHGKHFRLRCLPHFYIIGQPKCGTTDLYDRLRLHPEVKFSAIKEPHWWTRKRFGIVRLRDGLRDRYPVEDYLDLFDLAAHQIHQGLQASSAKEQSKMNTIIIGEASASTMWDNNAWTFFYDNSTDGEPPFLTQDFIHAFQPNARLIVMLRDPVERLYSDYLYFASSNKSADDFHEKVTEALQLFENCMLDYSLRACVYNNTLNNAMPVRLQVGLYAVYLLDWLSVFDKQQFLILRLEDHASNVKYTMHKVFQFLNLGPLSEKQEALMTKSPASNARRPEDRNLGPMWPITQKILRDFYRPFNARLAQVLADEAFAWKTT
Assay: Inhibition of GalNAc4S6ST enzyme activity ([35S]PAPS sulfate transfer to chondroitin sulfate A)
Type: biochemical
Conditions: for inhibitory activity upon GalNAc4S6ST (relative value of the enzyme reaction, system without substance = 100%): substance added at 50 nmol, 125 nmol or 250 nmol to 50 μl reaction, 37° C., 20 minutes, values only in FIG. 1-3; for strength of inhibitory activity upon GalNAc4S6ST, α type and β type of the same formula compared: Substance 1 vs 2, 3 vs 4, 5 vs 6, 50, 125 or 250 nmol in 50 μl reaction
Protocol: The enzyme activity was measured by modifying the method described in J. Biol. Chem., 276, 43894-43900 (2001). As the standard reaction solution, 2.5 μmol of imidazole-HCl (pH 6.8), 0.5 μmol of CaCl2, 1 μmol of reduced type glutathione, 25 nmol in galactosamine equivalent of chondroitin sulfate A (derived from whale cartilage, manufactured by Seikagaku Corporation), 50 pmol of [^35S]PAPS (active sulfate: about 5.0×10^5 cpm: prepared according to Anal Biochem., 148, 303-310 (1985)), and human-derived GalNAc4S6ST prepared according to the method described in J. Biol. Chem., 276, 43894-43900 (2001) were added to 50 μl. The reaction was started by adding each of Substance 1 of the present invention, Substance 2 of the present invention, Substance 3 of the present invention, Substance 4 of the present invention, Substance 5 of the present invention and Substance 6 of the present invention to this reaction system to give a final concentration of 50 nmol, 125 nmol or 250 nmol.
The reaction was carried out by incubating the reaction solution at 37° C. for 20 minutes, and the reaction was terminated by heating the reaction tubes in boiling water for 1 minute. After termination of the reaction, 3 volumes of ethanol containing 1.3% potassium acetate was added thereto to thereby precipitate the ^35S-labeled glycosaminoglycan, followed by gel chromatography using a high performance desalting column according to the method described in J. Biol. Chem., 268, 21968-21974 (1993), and then the radioactivity was measured by using a scintillation counter. A reaction system to which the enzyme was not added was used as the negative control.
By using the enzyme activity of a system to which the substance of the present invention was not added as the positive control and regarding it as 100%, relative values of the enzyme reaction in a system to which the substance of the present invention was added were calculated (Substance 1 of the present invention and Substance 2 of the present invention: FIG. 1, Substance 3 of the present invention and Substance 4 of the present invention: FIG. 2, Substance 5 of the present invention and Substance 6 of the present invention: FIG. 3).

Compound	inhibitory activity upon GalNAc4S6ST (relative value of the enzyme reaction, system without substance = 100%)	strength of inhibitory activity upon GalNAc4S6ST, α type and β type of the same formula compared
CC(=O)NC1[C@@H](Oc2ccccc2)OC(COS(=O)(=O)O)[C@H](O)[C@@H]1O (stereo partly shown) [Substance 1]	inhibitory activity was observed	–
CC(=O)NC1[C@H](Oc2ccccc2)OC(CO)[C@H](OS(=O)(=O)O)[C@@H]1O (stereo partly shown) [Substance 6]	–	stronger inhibitory activity
CC(=O)NC1[C@H](Oc2ccccc2)OC(COS(=O)(=O)O)[C@H](O)[C@@H]1O (stereo partly shown) [Substance 2]	inhibitory activity was observed	particularly strong
